The source of these data is patent publication US9556098B2, “Reduced coenzyme Q10 crystal having excellent stability” (KANEKA CORPORATION, priority 2011, dated 2017).

What all share (format): physicochemical
The nature of data set [1]: Solubility of the crystal in hexane. Conditions: n-hexane, temperature of 25° C. As to the method:
(§1) The inside of a 300 mL reaction flask (made of heat resistant glass) was replaced with nitrogen, and thereafter 40 g of commercially available reduced coenzyme Q10 (produced by Kaneka Corporation, conventionally known reduced coenzyme Q10 crystal) and 60 g of n-hexane were charged thereto and warmed to 40° C. with stirring to completely dissolve the reduced coenzyme Q10 in n-hexane. The solution was cooled to 25° C. at a cooling rate of 10° C./hour, then kept at 25° C. for 96 hours while being continuously stirred, and subjected to filtration and drying (drying under reduced pressure, 20 to 40° C.) to provide a crystal. From the result of analysis by DSC, the crystal was confirmed to have an endothermic peak indicating melting at 54.2° C. during temperature rise at a rate of 5° C./min, and an endothermic peak indicating melting at 51.6° C. during temperature rise at a rate of 1° C./min. In addition, as the result of analysis by powder X-ray diffraction, characteristic peaks at diffraction angles (2θ±0.2°) of 11.50°, 18.26°, 19.30°, 22.30°, 23.00° and 33.14° were observed as shown in FIG. 1. […] From the above analysis results, it was confirmed that the reduced coenzyme Q10 crystal obtained in the present Example was in a different crystal form from the conventionally known reduced coenzyme Q10 crystal. The solubility of the resulting crystal in hexane was measured, and found to be 9% by weight at a temperature of 25° C.

Data set [2] is described as follows: Solubility of the crystal in ethanol. Conditions: temperature of 30° C.
Data set [3] in a line: Sticking property due to electrostatic charge during pulverization by a mortar. The conditions noted are these: collection by stainless spatula. Here is the method: as §1, with “The solubility of the resulting crystal in hexane was measured, and found to be 9% by weight at a temperature of 25° C.” left out

As for `COc1c(O)c(C)c(C/C=C(\C)CC/C=C(\C)CC/C=C(\C)CC/C=C(\C)CC/C=C(\C)CC/C=C(\C)CC/C=C(\C)CC/C=C(\C)CC/C=C(\C)CCC=C(C)C)c(O)c1OC` [reduced coenzyme Q10 crystal of the present invention], the solubility in hexane in data set [1] is recorded as no more than 15 % by weight. The solubility in ethanol entry in data set [2] is given as “less than 4 % by weight”.
Take `COc1c(O)c(C)c(C/C=C(\C)CC/C=C(\C)CC/C=C(\C)CC/C=C(\C)CC/C=C(\C)CC/C=C(\C)CC/C=C(\C)CC/C=C(\C)CC/C=C(\C)CCC=C(C)C)c(O)c1OC` [conventionally known reduced coenzyme Q10 crystal]: the solubility in hexane in data set [1] is no less than 30 % by weight. The compound further displayed a solubility in ethanol in data set [2] of no less than 4 % by weight.
The compound `COc1c(O)c(C)c(C/C=C(\C)CC/C=C(\C)CC/C=C(\C)CC/C=C(\C)CC/C=C(\C)CC/C=C(\C)CC/C=C(\C)CC/C=C(\C)CC/C=C(\C)CCC=C(C)C)c(O)c1OC` [Comparative Example 1, reduced coenzyme Q10] had a solubility in hexane in data set [1] of 36.5 % by weight. Moreover, the “sticking property due to electrostatic charge” value in data set [3] is “exhibited remarkable sticking property”.
The corresponding values for `COc1c(O)c(C)c(C/C=C(\C)CC/C=C(\C)CC/C=C(\C)CC/C=C(\C)CC/C=C(\C)CC/C=C(\C)CC/C=C(\C)CC/C=C(\C)CC/C=C(\C)CCC=C(C)C)c(O)c1OC` [Example 1, reduced coenzyme Q10] are 9 % by weight and “did not exhibit sticking property”.
